Data on 20 compounds can be found in PubChem BioAssay (NCI).

Common to all, as to assay: inhibition of tumour cell growth, NCI panel, 48 h
The subject of assay [1] is COLO 205 colon.
The test system of assay [2] is HCT-15 colon.
Assay [3] concerns IGROV1 ovarian.
The test system of assay [4] is KM12 colon.
Assay [5] concerns KM20L2 colon.
Assay [6] deals with M19-MEL melanoma.
Assay [7] has as its system MALME-3M melanoma.
In assay [8] the test system is SNB-75 CNS.
Assay [9] deals with TK-10 renal.
Assay [10] concerns T-47D breast.

The structures appear in SMILES notation. “And” between values parts separate entries of the source, which are not always exact repeats. Equal entries are not always repeated.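 Step 1: Grow cells in 96-well plates. Step 2: Expose to compound for 48 hours at 5 concentrations. Step 3: Interpolate endpoints linearly; if unreached, use highest concentration. At the GI50, growth is halved. TGI denotes the concentration required for complete inhibition of growth.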

For `O=C(Nc1ccc(Cl)cc1C(=O)O)c1ccc([N+](=O)[O-])cc1`, the TGI in assay [1] was found to be 39.4 µM; in assay [2], 46.3 µM; in assay [3], 45.5 µM; in assay [4], 36.2 µM; in [5], 48.3 µM; in [6] it was 55.9 µM. In addition, the results for the TGI in [7], in assay [8] and in assay [9] were 25.7 µM, greater than 100 µM and 86.4 µM, respectively.

For `CCOC(=N)CC(=O)Nc1ccccc1`, the TGI is greater than 46.4 µM in [1]; greater than 46.4 µM in assay [2]; greater than 46.4 µM in assay [3]; greater than 46.4 µM in assay [4]; greater than 100 µM in [5]; greater than 46.4 µM in assay [6]. The TGI in [7], in assay [8] and in assay [9] was greater than 46.4 µM each time.

Regarding `N#C/C(=C1\OC(=N)C(c2ccccc2)C1=O)c1ccccc1` (stereo unspecified), the TGI in assay [1] was 44.2 µM; in assay [2], 60.2 µM; in [3] it was greater than 80.7 µM; in [4], greater than 100 µM; in [5] it was greater than 100 µM; in assay [6] it was 56.5 µM. In addition, the TGI in assay [7] was 36.8 µM; in assay [8] it was greater than 85.7 µM; in [9], 68.5 µM.

On to `C[N+](C)(C)c1cc[c]([Sn]([c]2ccc([N+](C)(C)C)cc2)([c]2ccc([N+](C)(C)C)cc2)[c]2ccc([N+](C)(C)C)cc2)cc1`, for which the GI50 in [1], in assay [2], in assay [3], in assay [4], in [5] and in assay [6] was greater than 100 µM each time. Moreover, the GI50 in assay [7], in assay [8] and in assay [9] was greater than 100 µM throughout. Moreover, the TGI in [1], in [2], in assay [3], in [4], in assay [5] and in assay [6] was greater than 100 µM each time. Further, the TGI in [7], in assay [8] and in assay [9] was greater than 100 µM each time.

Take `CC1C=CC(C(N)C(=O)O)O1` (stereo unspecified): the TGI in [1], in [2], in [3], in assay [4], in assay [5] and in assay [6] was greater than 100 µM each time. Further, the TGI in assay [7] and in assay [8] was greater than 100 µM throughout.

With `CC1=CP(=O)(c2ccccc2)C=C(C)C1=C(Cl)Cl` (stereo unspecified), the TGI in [1] was 16.4 µM; in [3], 34.1 µM; in assay [4], 14.9 µM; in assay [5], 4.61 µM; in assay [6], 30.3 µM; in assay [8], greater than 100 µM. In [9], this compound came in with a TGI of 43.3 µM.

For the compound `O=C(CC1C(=O)Nc2ccccc2S1(=O)=O)Nc1ccc(Cl)cc1` (stereo unspecified), the TGI was greater than 100 µM in assay [2]; 37.7 µM in assay [3]; greater than 100 µM in assay [5]; 61.9 µM in assay [6]; 86.9 µM in assay [7]; 37.6 µM in [8]. This compound also registered a TGI in [9] of 54.5 µM.

In the case of `O=C(N/C(=C\c1ccccc1O)c1nc2ccccc2[nH]1)c1ccccc1`, the TGI in assay [1], in [2], in [3], in [4], in assay [5] and in assay [6] was greater than 100 µM in each case. Moreover, the results for the TGI in assay [7], in [8] and in assay [9] were greater than 100 µM, 36.1 µM and 90.8 µM, respectively.

For `CCCCNC(=S)OCCC(C)CCCC(C)C` (stereo unspecified), the TGI in assay [2], in assay [3], in [4], in [5], in assay [6] and in assay [7] was greater than 100 µM each time. Also, the TGI in [8] and in assay [9] was greater than 100 µM throughout.

As for `O=C1NC2(CCCCC2)C(=O)N1CCN(CCCl)CCCl`, the GI50 in assay [1] is greater than 25 µM; in [2], > 25 µM and 200 µM; in assay [3], 17.7 µM; in [4], greater than 25 µM; in assay [7] it was greater than 25 µM; in assay [8], greater than 25 µM. The TGI was greater than 250 µM in assay [1]; greater than 242 µM in assay [2]; greater than 194 µM in assay [4]; greater than 194 µM in assay [5]; greater than 250 µM in assay [6]; greater than 194 µM in assay [7]. Moreover, the figures for the TGI in assay [8], in assay [10] and in assay [9] were greater than 250 µM, 25 µM and greater than 25 µM, respectively.

Take `COc1ccc(O)cc1C(O)c1ccccc1` (stereo unspecified): the TGI in [1], in assay [2], in [3], in [4], in [5] and in [6] was greater than 100 µM each time. Further, the TGI in assay [7], in [8] and in assay [9] was greater than 100 µM in each case.

Regarding `O=C(N=c1nc(NC(=O)c2ccccc2)ss1)c1ccccc1`, the TGI in assay [1] was 47.3 µM; in assay [2], greater than 100 µM; in [3] it was greater than 100 µM; in assay [4], greater than 100 µM; in [5], greater than 100 µM; in assay [6], greater than 100 µM. Besides, the TGI in assay [7], in assay [8] and in assay [9] was greater than 100 µM throughout.

Take `c1ccc2c(c1)Cc1c(Cc3csc4ccccc34)ccc3cccc-2c13`: the TGI in assay [1], in assay [2], in assay [3], in assay [4], in assay [5] and in assay [6] was greater than 100 µM in each case. Besides, the TGI in assay [7] and in [8] was greater than 100 µM throughout.

Regarding `Cc1ccc(/C=C/C(=O)c2sc(-n3nc(-c4ccccc4)cc3-c3ccccc3)nc2C)cc1`, the TGI in [1], in assay [2], in assay [3], in assay [4], in assay [5] and in [6] was greater than 100 µM each time. For the same compound, the TGI in assay [7], in assay [8] and in assay [9] was greater than 100 µM in each case.

For `O=C(CCC(=O)Nc1cccc(C(F)(F)F)c1)CC(=O)c1ccc2ccccc2c1`, the TGI in assay [1], in [2], in assay [3], in [4], in [5] and in assay [6] was greater than 100 µM throughout. The TGI in [7] and in assay [9] was greater than 100 µM each time.

With `COc1cc2c(c(OC)c1OC)-c1ccc(SC)c(=O)cc1[C@@H](NC(=O)C(F)(F)F)CC2`, the TGI in assay [1] was less than 0.0631 µM; in assay [2] it was greater than 15.8 µM; in assay [3], greater than 100 µM; in assay [4] it was less than 0.0631 µM; in [5] it was less than 0.0115 µM; in assay [6], greater than 100 µM. Moreover, the TGI in [7] was greater than 88.1 µM; in [8] it was 6.29 µM; in assay [10] it was greater than 100 µM; in assay [9], greater than 100 µM.

As for `COc1cc(/C=C(\NC(=O)c2ccccc2)c2nc3ncncc3[nH]2)cc(OC)c1OC`, the TGI in assay [1], in assay [2], in assay [3], in assay [4], in [5] and in assay [6] was greater than 100 µM throughout. Also, the TGI in [7] and in assay [9] was greater than 100 µM throughout.

Consider `NS(=O)(=O)c1ccc(NC(=O)C2C(=O)C(=O)N(c3ccc(S(N)(=O)=O)cc3)C2=O)cc1` (stereo unspecified), for which the TGI in assay [1], in assay [2], in assay [3], in assay [5], in [6] and in [7] was greater than 100 µM throughout. Moreover, the TGI in [8] and in assay [9] was greater than 100 µM throughout.

For `C(=C\C(Sc1ccccc1)c1ccccc1)/NNC1=NC(c2ccccc2)C(c2ccccc2)=NN1` (stereo unspecified), the TGI in assay [1], in assay [2], in assay [3], in assay [4], in [5] and in [6] was greater than 100 µM throughout. Moreover, the TGI in [7], in assay [8] and in [9] was greater than 100 µM in each case.

On to `CCc1cc2c(O)c(c1)Cc1cc(CC)cc(c1O)Cc1cc(CC)cc(c1O)Cc1cc(CC)cc(c1O)Cc1cc(CC)cc(c1O)Cc1cc(CC)cc(c1O)Cc1cc(CC)cc(c1O)C2`, for which the TGI in [1], in assay [2], in assay [3], in [4], in assay [5] and in assay [6] was greater than 100 µM each time. Moreover, the values for the TGI in [7], in [8] and in [9] were greater than 100 µM, 61.4 µM and greater than 100 µM, respectively.
